In US9630977B2, “Cephalosporin derivatives and pharmaceutical compositions thereof” (Legochem Biosciences, Inc., priority 2011, dated 2017):
Converted amounts (≈) assume the structure as drawn.

Each compound was assayed on E. cloacae β19 (assay: In vitro antibacterial activity test (broth microdilution)). Conditions: Enterobacter cloacae, read-out: MIC90.
Type: cell-based
Procedure, shortened: (§1)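 Compounds were dissolved in DMSO at 10,240 ug/mL stock, diluted two-fold in DMSO and then twenty-fold in sterile water. Final test concentrations spanned 0.0626 to 128 ug/mL with 2.5% (V/V) DMSO, and MIC90 was read by CLSI broth microdilution.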

SMILES | MIC90 [mg/L]
CC(C)(O/N=C(\C(=O)N[C@@H]1C(=O)N2C(C(=O)[O-])=C(C[n+]3cnc(N)c(NCCNC(=O)c4cc(=O)c(O)cn4O)c3)CSC12)c1nc(N)sc1Cl)C(=O)O (stereo partly shown) [Compound 15] | 32 (≈ 39.6 µM)

The compounds below were run on A. calcoaceticus ATCC15473 in the same assay as above. Conditions: Acinetobacter calcoaceticus; A. calcoaceticus ATCC15473; read-out: MIC90.
Type: cell-based
Procedure, shortened: as §1

SMILES | MIC90 [mg/L]
CC(C)(O/N=C(\C(=O)N[C@@H]1C(=O)N2C(C(=O)[O-])=C(C[n+]3cnc(N)c(NCCNC(=O)c4cc(=O)c(O)cn4O)c3)CSC12)c1nc(N)sc1Cl)C(=O)O (stereo partly shown) [Compound 15] | 0.5 (≈ 0.619 µM)

The compounds below were run on A. baumannii 49 in the same assay as above. Conditions: Acinetobacter baumannii; A. baumannii 49; read-out: MIC90.
Type: cell-based
Procedure, shortened: as §1

SMILES | MIC90 [mg/L]
CC(C)(O/N=C(\C(=O)N[C@@H]1C(=O)N2C(C(=O)[O-])=C(C[n+]3cnc(N)c(NCCNC(=O)c4cc(=O)c(O)cn4O)c3)CSC12)c1nc(N)sc1Cl)C(=O)O (stereo partly shown) [Compound 15] | 8 (≈ 9.9 µM)

These compounds were tested on K. pneumoniae β10 in the same assay as above. Conditions: Klebsiella pneumoniae; K. pneumoniae β10; read-out: MIC90.
Type: cell-based
Procedure, shortened: as §1

SMILES | MIC90 [mg/L]
CC(C)(O/N=C(\C(=O)N[C@@H]1C(=O)N2C(C(=O)[O-])=C(C[n+]3cnc(N)c(NCCNC(=O)c4cc(=O)c(O)cn4O)c3)CSC12)c1nc(N)sc1Cl)C(=O)O (stereo partly shown) [Compound 15] | 0.25 (≈ 0.309 µM)

What follows are compounds tested on A. baumannii 46 in the same assay as above. Conditions: Acinetobacter baumannii; A. baumannii 46; read-out: MIC90.
Type: cell-based
Procedure, shortened: as §1

SMILES | MIC90 [mg/L]
CC(C)(O/N=C(\C(=O)N[C@@H]1C(=O)N2C(C(=O)[O-])=C(C[n+]3cnc(N)c(NCCNC(=O)c4cc(=O)c(O)cn4O)c3)CSC12)c1nc(N)sc1Cl)C(=O)O (stereo partly shown) [Compound 15] | 128 (≈ 158 µM)

Each compound was assayed on M. catarrhalis 2524 in the same assay as above. Conditions: Moraxella catarrhalis; M. catarrhalis 2524; read-out: MIC90.
Type: cell-based
Procedure, shortened: as §1

SMILES | MIC90 [mg/L]
CC(C)(O/N=C(\C(=O)N[C@@H]1C(=O)N2C(C(=O)[O-])=C(C[n+]3cnc(N)c(NCCNC(=O)c4cc(=O)c(O)cn4O)c3)CSC12)c1nc(N)sc1Cl)C(=O)O (stereo partly shown) [Compound 15] | 0.25 (≈ 0.309 µM)

The compounds below were run on K. pneumoniae β14 in the same assay as above. Conditions: Klebsiella pneumoniae, read-out: MIC90.
Type: cell-based
Procedure, shortened: as §1

SMILES | MIC90 [mg/L]
CC(C)(O/N=C(\C(=O)N[C@@H]1C(=O)N2C(C(=O)[O-])=C(C[n+]3cnc(N)c(NCCNC(=O)c4cc(=O)c(O)cn4O)c3)CSC12)c1nc(N)sc1Cl)C(=O)O (stereo partly shown) [Compound 15] | 128 (≈ 158 µM)

The compounds below were run on P. aeruginosa 1912E in the same assay as above. Conditions: Pseudomonas aeruginosa, 1912E, read-out: MIC90.
Type: cell-based
Procedure, shortened: as §1

SMILES | MIC90 [mg/L]
CC(C)(O/N=C(\C(=O)N[C@@H]1C(=O)N2C(C(=O)[O-])=C(C[n+]3cnc(N)c(NCCNC(=O)c4cc(=O)c(O)cn4O)c3)CSC12)c1nc(N)sc1Cl)C(=O)O (stereo partly shown) [Compound 15] | 0.5 (≈ 0.619 µM)

These compounds were tested on K. pneumoniae β9 in the same assay as above. Conditions: Klebsiella pneumoniae, K. pneumoniae β9; read-out: MIC90.
Type: cell-based
Procedure, shortened: as §1

SMILES | MIC90 [mg/L]
CC(C)(O/N=C(\C(=O)N[C@@H]1C(=O)N2C(C(=O)[O-])=C(C[n+]3cnc(N)c(NCCNC(=O)c4cc(=O)c(O)cn4O)c3)CSC12)c1nc(N)sc1Cl)C(=O)O (stereo partly shown) [Compound 15] | 4 (≈ 4.95 µM)

What follows are compounds tested on K. pneumoniae β11 in the same assay as above. Conditions: Klebsiella pneumoniae; K. pneumoniae β11; read-out: MIC90.
Type: cell-based
Procedure, shortened: as §1

SMILES | MIC90 [mg/L]
CC(C)(O/N=C(\C(=O)N[C@@H]1C(=O)N2C(C(=O)[O-])=C(C[n+]3cnc(N)c(NCCNC(=O)c4cc(=O)c(O)cn4O)c3)CSC12)c1nc(N)sc1Cl)C(=O)O (stereo partly shown) [Compound 15] | 64 (≈ 79.2 µM)

These compounds were tested on K. pneumoniae β13 in the same assay as above. Conditions: Klebsiella pneumoniae, K. pneumoniae β13; read-out: MIC90.
Type: cell-based
Procedure, shortened: as §1

SMILES | MIC90 [mg/L]
CC(C)(O/N=C(\C(=O)N[C@@H]1C(=O)N2C(C(=O)[O-])=C(C[n+]3cnc(N)c(NCCNC(=O)c4cc(=O)c(O)cn4O)c3)CSC12)c1nc(N)sc1Cl)C(=O)O (stereo partly shown) [Compound 15] | 2 (≈ 2.47 µM)

These compounds were tested on E. coli β4 in the same assay as above. Conditions: Escherichia coli, read-out: MIC90.
Type: cell-based
Procedure, shortened: as §1

SMILES | MIC90 [mg/L]
CC(C)(O/N=C(\C(=O)N[C@@H]1C(=O)N2C(C(=O)[O-])=C(C[n+]3cnc(N)c(NCCNC(=O)c4cc(=O)c(O)cn4O)c3)CSC12)c1nc(N)sc1Cl)C(=O)O (stereo partly shown) [Compound 15] | 16 (≈ 19.8 µM)

These compounds were tested on P. aeruginosa 6065Y in the same assay as above. Conditions: Pseudomonas aeruginosa, read-out: MIC90.
Type: cell-based
Procedure, shortened: as §1

SMILES | MIC90 [mg/L]
CC(C)(O/N=C(\C(=O)N[C@@H]1C(=O)N2C(C(=O)[O-])=C(C[n+]3cnc(N)c(NCCNC(=O)c4cc(=O)c(O)cn4O)c3)CSC12)c1nc(N)sc1Cl)C(=O)O (stereo partly shown) [Compound 15] | 1 (≈ 1.24 µM)

These compounds were tested on P. aeruginosa 37 in the same assay as above. Conditions: Pseudomonas aeruginosa, 37, P. aeruginosa 37; read-out: MIC90.
Type: cell-based
Procedure, shortened: as §1

SMILES | MIC90 [mg/L]
CC(C)(O/N=C(\C(=O)N[C@@H]1C(=O)N2C(C(=O)[O-])=C(C[n+]3cnc(N)c(NCCNC(=O)c4cc(=O)c(O)cn4O)c3)CSC12)c1nc(N)sc1Cl)C(=O)O (stereo partly shown) [Compound 15] | 0.125 (≈ 0.155 µM)

Each compound was assayed on P. aeruginosa 43 in the same assay as above. Conditions: Pseudomonas aeruginosa; P. aeruginosa 43; read-out: MIC90.
Type: cell-based
Procedure, shortened: as §1

SMILES | MIC90 [mg/L]
CC(C)(O/N=C(\C(=O)N[C@@H]1C(=O)N2C(C(=O)[O-])=C(C[n+]3cnc(N)c(NCCNC(=O)c4cc(=O)c(O)cn4O)c3)CSC12)c1nc(N)sc1Cl)C(=O)O (stereo partly shown) [Compound 15] | 0.25 (≈ 0.309 µM)

Each compound was assayed on A. baumannii 52 in the same assay as above. Conditions: Acinetobacter baumannii; A. baumannii 52; read-out: MIC90.
Type: cell-based
Procedure, shortened: as §1

SMILES | MIC90 [mg/L]
CC(C)(O/N=C(\C(=O)N[C@@H]1C(=O)N2C(C(=O)[O-])=C(C[n+]3cnc(N)c(NCCNC(=O)c4cc(=O)c(O)cn4O)c3)CSC12)c1nc(N)sc1Cl)C(=O)O (stereo partly shown) [Compound 15] | 2 (≈ 2.47 µM)

Each compound was assayed on E. coli AG100 in the same assay as above. Conditions: Escherichia coli, AG100, E. coli AG100; read-out: MIC90.
Type: cell-based
Procedure, shortened: as §1

SMILES | MIC90 [mg/L]
CC(C)(O/N=C(\C(=O)N[C@@H]1C(=O)N2C(C(=O)[O-])=C(C[n+]3cnc(N)c(NCCNC(=O)c4cc(=O)c(O)cn4O)c3)CSC12)c1nc(N)sc1Cl)C(=O)O (stereo partly shown) [Compound 15] | 2 (≈ 2.47 µM)

The compounds below were run on K. pneumoniae 2011E in the same assay as above. Conditions: Klebsiella pneumoniae, 2011E, K. pneumoniae 2011E; read-out: MIC90.
Type: cell-based
Procedure, shortened: as §1

SMILES | MIC90 [mg/L]
CC(C)(O/N=C(\C(=O)N[C@@H]1C(=O)N2C(C(=O)[O-])=C(C[n+]3cnc(N)c(NCCNC(=O)c4cc(=O)c(O)cn4O)c3)CSC12)c1nc(N)sc1Cl)C(=O)O (stereo partly shown) [Compound 15] | 8 (≈ 9.9 µM)

Each compound was assayed on P. aeruginosa 40 in the same assay as above. Conditions: Pseudomonas aeruginosa, 40, P. aeruginosa 40; read-out: MIC90.
Type: cell-based
Procedure, shortened: as §1

SMILES | MIC90 [mg/L]
CC(C)(O/N=C(\C(=O)N[C@@H]1C(=O)N2C(C(=O)[O-])=C(C[n+]3cnc(N)c(NCCNC(=O)c4cc(=O)c(O)cn4O)c3)CSC12)c1nc(N)sc1Cl)C(=O)O (stereo partly shown) [Compound 15] | 0.5 (≈ 0.619 µM)
